Reference: patent publication US5932208A, “Compositions and methods for the use of such compositions in human therapeutics, characterized by the association of a muramyl peptide with a cytokine” (Vacsyn S.A., priority 1993, dated 1999)
“And” between values parts separate entries of the source, which are not always exact repeats. Equal entries are not always repeated.

Tests used:
neutrophils = assay: Neutrophil counts in healthy volunteers after single subcutaneous administration; assay type: in vivo, human; conditions: α-IFN 0, muramyl peptide 100 μg/Kg alone; highest value during the 24 hours after administration
Method: (§1) They receive subcutaneously the mixtures described in the following table I of murabutide (MUB) or murametide (MUM) with α-interferon 2a (α-IFN).
The subjects are monitored during the three days following the administration of the IFN and/or the muramyl peptides, and all of the tests and investigations necessary to carry out a phase I test are effected.
Haematological analysis with white corpuscle counts at the time of injection and then 6 hours, 12 hours, 24 hours, 36 hours, 60 hours and 72 hours after injection.
The leucocyte counts are carried out in a COULTER COUNTER automatic cell counter.
Neutrophils are the cells which are the most affected by leucopenic treatments. It is the reduction in the amount of neutrophils which is responsible for the reduction in the non-specific immune defences in subjects subjected to radiotherapy or to cytotoxic and/or myelotoxic chemotherapy. To make reading easier, only the neutrophil counts made at the time when their variation is at its greatest have been given.

neopterine = assay: Neopterine test (RIA) on sera of healthy volunteers; assay type: in vivo, human; conditions: for Influence on the amount of neopterine, in words: dose of 100 μg/kg alone; for Neopterine in serum: muramyl peptide 100 μg/Kg alone (α-IFN 0)
Method: as §1
(§2) Blood samples are taken before injection and 6 hours, 24 hours and 48 hours after injection, in order to collect the serum necessary to carry out the tests for neopterine, interleukin 1, 6 and 8, G-CSF, IL-1 RA and α-TNF.
(§3) The blood samples for the serum tests are centrifuged at 4° C. and 3000 rpm for 10' immediately after they are taken. The sera are stored at -20° C. The leucocyte counts and the neopterine and cytokine tests are carried out using commercial kits.
The tests are carried out on sera taken at 0, 24 and 48 hours. An RIA (Radio Immuno Assay) kit (Behring Diagnostic, France) is used. The results are expressed in […], and the normal values vary from […].

[1] = system: IL-1 receptor antagonist (IL-1 RA); assay: IL-1 receptor antagonist (IL-1 RA) test on sera of healthy volunteers; assay type: in vivo, human; conditions: α-IFN 0, muramyl peptide 100 μg/Kg alone; 6 hours after administration
Method: as §1, §2, §3

IL-6 [2] = assay: IL-6 test (Elisa) on sera of healthy volunteers; assay type: in vivo, human; conditions: α-IFN 0, muramyl peptide 100 μg/Kg alone; 6 hours after administration
Method: as §1, §2, §3
The test is carried out using an Elisa test kit (British Biotechnology Products Ltd.) on sera taken at time 0 and after 6 hours. The figures express the pg/ml, the normal values are less than 6 pg.

G-CSF = G-CSF test on sera of healthy volunteers; assay type: in vivo, human; conditions: α-IFN 0, muramyl peptide 100 μg/Kg alone; for Amounts of G-CSF in serum after 0 hour: before administration
Method: as §1, §2, §3
These tests were carried out using the British Biotechnology Products Ltd. kit (see Table VI).

[3] = system: Soluble TNF receptor (STNF-R); assay: Soluble TNF receptor (STNF-R) ELISA test in serum; assay type: in vivo, human; conditions: α-IFN 6 × 10^6 units and/or murabutide 100 μg/Kg
Method: These tests are carried out by an ELISA test in the serum of subjects having 6M units of IFN. At that dose, there is already an appreciable increase in the amount of STNF-R but the addition of murabutide permits a significant increase in the secretion of that mediator.

circulating neutrophils = assay: Neutrophil count after repeated administration to humans (days 1, 3 and 5); assay type: in vivo, human; conditions: α-IFN 2a 1 MU and/or murabutide 7 mg on days 1, 3 and 5
Method: Phase I/IIa tests were carried out on 3 groups of 6 healthy volunteers who received the following treatments on days 1, 3 and 5:
a) α-IFN 2a (1 MU) Roferon;
c) the association of the two immunostimulants.
By studying their influence on the number of circulating neutrophils.

IL-6 [4] = assay: In vitro incubation of blood of healthy volunteers: IL-6 secreted; assay type: cell-based, human
Method: (§4) Blood taken from healthy volunteers was incubated in vitro with different combinations associating murabutide and α-IFN. The murabutide was used at a dose of 20 μg/ml and the IFN was used at a dose of from 30 to 100 μ/ml. At different times in the course of incubation, blood samples are taken and the mononucleated cells are separated on a Ficoll gradient. The total RNA is extracted, purified and separated by electrophoresis. It is then analysed in accordance with the Schreck method in order to determine by a hybridisation technique what genes were induced by the treatment.
(§5) Studies similar to those described above were carried out in order to study the murabutide-GM-CSF association. These studies were carried out in vitro on the cells of healthy volunteers after incubation with immunomodulators alone or in association.
(§6) Specific cytokines were sought and measured in the supernatants (see Table XIII).

sTNFR2 = assay: In vitro incubation of blood of healthy volunteers: sTNFR2 secreted; assay type: cell-based, human
Method: as §4, §5, §6

IL-1 RA = assay: In vitro incubation of blood of healthy volunteers: IL-1 RA secreted; assay type: cell-based, human
Method: as §4, §5, §6

Swiss mice = assay: Endotoxic shock (D-galactosamine + LPS) model in Swiss mice; assay type: in vivo; conditions: for Average % mortality / Number of dead mice per total tested, Exp. 1 / Number of dead mice per total tested, Exp. 2 / Number of dead mice per total tested, Exp. 3: intravenously, mortality after 48 hours
Method: The administration of D-galactosamine with lipopolysaccharide (LPS) to Swiss mice induces endotoxic shock with at least 70% mortality in 24-48 hours. The prophylactic or therapeutic effect of murabutide was studied in this model in order to evaluate its anti-inflammatory activity when it is administered alone or in combination with α/β-IFN. […] On the contrary, pretreatment with a combination of murabutide and α/β-interferon induces significant protection with an incidence of mortality of only 33% (against 78% in the controls).
^1) The Swiss mice were tested intraperitoneally at time 0 with 18 mg
of Dgalactosamine + 50 ng of LPS. The mortality was measured after 48
^2) The compounds are administered intravenously either 3 hours befor

KHT sarcoma cells = assay: KHT sarcoma model in C3H/HeN mice, IL-2 with murametide; assay type: in vivo
Method: A murine model has been developed in C3H/HeN mice. KHT sarcoma cells are administered by the venous route. After 4 days and 6 days they are treated with:
c) the association of the two immunomodulators;
d) a fourth group is not treated.

[5] = +1 hr, Murabutide 15 mg/kg and/or α/β-IFN 1.25 × 10^6 IU/kg (alone: 11.25 × 10^6 IU/kg [sic])
[6] = Murabutide 15 mg/kg alone, -3 hrs
[7] = GM-CSF 1 ng/ml, without or with Murabutide 20 μg/ml
[8] = GM-CSF 5 ng/ml, without or with Murabutide 20 μg/ml

## CCCCOC(=O)[C@@H](CCC(N)=O)NC(=O)[C@H](C)NC(=O)[C@@H](C)O[C@H]1[C@H](O)[C@@H](CO)OC(O)[C@@H]1NC(C)=O (stereo partly shown) [Murabutide, murabutide]
neutrophils
  Neutrophil count % base line: 268 ± 43 % base line
neopterine
  Influence on the amount of neopterine, in words: does not influence the amount significantly
neopterine; T 0 hours
  Neopterine in serum: 6.37 ± 0.99 nM
neopterine; T 24 hours
  Neopterine in serum: 7.33 ± 0.75 nM
neopterine; T 48 hours
  Neopterine in serum: 8.22 ± 1.39 nM
[1]
  Amounts of IL-1 RA in the serum: 496 ± 326 pg/mL
IL-6 [2]
  Amounts of IL-6 in the serum: 2.80 ± 1.60 pg/mL and 4.30 ± 1.80 pg/mL
G-CSF
  Amounts of G-CSF in serum after 6 hours: 18 ± 9
  Amounts of G-CSF in serum after 0 hour: < 10
[3]
  Amount of STNF-R in the serum, 0 hour: 195 ± 28 pg/mL
  Amount of STNF-R in the serum, 6 hours: 616 ± 65 pg/mL
[3]; 6 hours versus 0 hour
  STNF-R net increase: 31 ± 37 pg/mL
Circulating neutrophils; day of treatment 1
  Neutrophil count (% of the base line) after 3 hours: 139 ± 26 % of the base line
  Neutrophil count (% of the base line) after 6 hours: 256 ± 51 % of the base line
  Neutrophil count (% of the base line) after 12 hours: 227 ± 46 % of the base line
Circulating neutrophils; day of treatment 3
  Neutrophil count (% of the base line) after 3 hours: 133 ± 24 % of the base line
  Neutrophil count (% of the base line) after 6 hours: 182 ± 27 % of the base line
  Neutrophil count (% of the base line) after 12 hours: 176 ± 59 % of the base line
Circulating neutrophils; day of treatment 5
  Neutrophil count (% of the base line) after 3 hours: 107 ± 19 % of the base line
  Neutrophil count (% of the base line) after 6 hours: 150 ± 28 % of the base line
  Neutrophil count (% of the base line) after 12 hours: 153 ± 23 % of the base line
IL-6 [4]; Murabutide 20 μg/ml alone
  Average amounts of cytokines secreted: IL-6: 15.5 ± 11.3 pg/mL
sTNFR2; Murabutide 20 μg/ml alone
  Average amounts of cytokines secreted: sTNFR2: 1171 ± 478 pg/mL
IL-1 RA; Murabutide 20 μg/ml alone
  Average amounts of cytokines secreted: IL-1 RA: 7.8 ± 6.0 ng/mL
Swiss mice; [5]
  Average % mortality: 31%
  Number of dead mice per total tested, Exp. 1: 2/9
  Number of dead mice per total tested, Exp. 2: 3/8
  Number of dead mice per total tested, Exp. 3: 3/9
Swiss mice; [6]
  Average % mortality: 74%
  Number of dead mice per total tested, Exp. 1: 7/9
  Number of dead mice per total tested, Exp. 2: 7/8
  Number of dead mice per total tested, Exp. 3: 6/10
Swiss mice; administration 1 hour after the induction of endotoxic shock
  Curative effect, in words: significant curative effect
Swiss mice; pretreatment of the mice
  Prophylactic effect against the galactosamine/LPS mixture, in words: does not give rise to a prophylactic effect

## GM-CSF: cytokine GM-CSF
IL-6 [4]; [7]
  Average amounts of cytokines secreted: IL-6: 2.0 ± 1.5 pg/mL
IL-6 [4]; [8]
  Average amounts of cytokines secreted: IL-6: 2.3 ± 2.1 pg/mL
sTNFR2; [7]
  Average amounts of cytokines secreted: sTNFR2: 1027 ± 624 pg/mL
sTNFR2; [8]
  Average amounts of cytokines secreted: sTNFR2: 1359 ± 350 pg/mL
IL-1 RA; [7]
  Average amounts of cytokines secreted: IL-1 RA: 4.0 ± 1.4 ng/mL
IL-1 RA; [8]
  Average amounts of cytokines secreted: IL-1 RA: 8.7 ± 10.0 ng/mL

## COC(=O)[C@@H](CCC(N)=O)NC(=O)[C@H](C)NC(=O)C(C)O[C@H]1[C@H](O)[C@@H](CO)O[C@H](O)[C@@H]1NC(C)=O (stereo partly shown) [Murametide, murametide]
neutrophils
  Neutrophil count % base line: 279 ± 67 % base line
neopterine
  Influence on the amount of neopterine, in words: does not influence the amount significantly
neopterine; T 0 hours
  Neopterine in serum: 5.43 ± 0.66 nM
neopterine; T 24 hours
  Neopterine in serum: 7.14 ± 1 nM
neopterine; T 48 hours
  Neopterine in serum: 7.39 ± 1.37 nM
G-CSF
  Amounts of G-CSF in serum after 6 hours: 73 ± 115
  Amounts of G-CSF in serum after 0 hour: 61 ± 103
KHT sarcoma cells; mice having pulmonary sarcoma metastases, preliminary data
  Antitumour activity: no antitumour activity
KHT sarcoma cells; mice having tumours
  Toxicity of IL-2 in mice having tumours: reduces the toxicity of IL-2
